Assays:
α1β2γ2 GABAA receptor = biological target: T1, α1β2γ2 GABAA receptor (Mus musculus, UniProt P22723+P62812+P63137); test: two-electrode voltage clamp in Xenopus oocytes; potentiation of currents induced by […] GABA; assay type: cell-based
T1 construct: gene Gabra1; murine α1, β2, and γ2 GABAA subunits expressed in Xenopus laevis oocytes; with GABAA receptor β2 (Gabrb2) and γ2 (Gabrg2) subunits

rat ASIC1a (rASIC1a) = biological target: T2, rat ASIC1a (rASIC1a) (Rattus norvegicus, UniProt P55926); test: two-electrode voltage clamp in Xenopus oocytes; inhibition of pH […].0-induced currents; assay type: cell-based
T2 construct: gene Asic1; homomeric rat ASIC1a expressed in Xenopus laevis oocytes
T2 sequence (P55926 1-526): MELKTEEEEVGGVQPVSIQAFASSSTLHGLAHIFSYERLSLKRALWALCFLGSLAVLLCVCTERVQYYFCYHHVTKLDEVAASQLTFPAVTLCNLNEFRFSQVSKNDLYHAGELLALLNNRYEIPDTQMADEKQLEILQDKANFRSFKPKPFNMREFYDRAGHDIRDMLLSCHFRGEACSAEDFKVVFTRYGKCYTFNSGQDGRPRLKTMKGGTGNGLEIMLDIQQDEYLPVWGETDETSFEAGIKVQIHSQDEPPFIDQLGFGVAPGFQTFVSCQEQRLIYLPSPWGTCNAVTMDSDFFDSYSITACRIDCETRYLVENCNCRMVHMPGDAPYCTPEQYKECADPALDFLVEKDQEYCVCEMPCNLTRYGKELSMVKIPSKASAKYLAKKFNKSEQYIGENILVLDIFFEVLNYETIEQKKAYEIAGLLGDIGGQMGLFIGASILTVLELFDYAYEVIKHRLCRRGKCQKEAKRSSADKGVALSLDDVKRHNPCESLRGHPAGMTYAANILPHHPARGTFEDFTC

T1 sequence (P62812 28-455): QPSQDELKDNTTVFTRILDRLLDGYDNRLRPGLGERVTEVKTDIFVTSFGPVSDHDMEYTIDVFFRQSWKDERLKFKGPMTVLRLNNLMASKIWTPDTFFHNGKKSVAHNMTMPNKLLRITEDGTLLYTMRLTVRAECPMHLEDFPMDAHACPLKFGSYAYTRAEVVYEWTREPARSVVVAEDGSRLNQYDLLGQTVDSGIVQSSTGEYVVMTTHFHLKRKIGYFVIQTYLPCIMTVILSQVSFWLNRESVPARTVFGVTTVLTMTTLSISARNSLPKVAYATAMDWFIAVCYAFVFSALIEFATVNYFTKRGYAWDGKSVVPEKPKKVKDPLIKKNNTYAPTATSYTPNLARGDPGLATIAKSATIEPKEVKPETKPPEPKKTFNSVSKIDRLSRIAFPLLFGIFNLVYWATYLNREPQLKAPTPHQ
T1 sequence (P63137 26-512): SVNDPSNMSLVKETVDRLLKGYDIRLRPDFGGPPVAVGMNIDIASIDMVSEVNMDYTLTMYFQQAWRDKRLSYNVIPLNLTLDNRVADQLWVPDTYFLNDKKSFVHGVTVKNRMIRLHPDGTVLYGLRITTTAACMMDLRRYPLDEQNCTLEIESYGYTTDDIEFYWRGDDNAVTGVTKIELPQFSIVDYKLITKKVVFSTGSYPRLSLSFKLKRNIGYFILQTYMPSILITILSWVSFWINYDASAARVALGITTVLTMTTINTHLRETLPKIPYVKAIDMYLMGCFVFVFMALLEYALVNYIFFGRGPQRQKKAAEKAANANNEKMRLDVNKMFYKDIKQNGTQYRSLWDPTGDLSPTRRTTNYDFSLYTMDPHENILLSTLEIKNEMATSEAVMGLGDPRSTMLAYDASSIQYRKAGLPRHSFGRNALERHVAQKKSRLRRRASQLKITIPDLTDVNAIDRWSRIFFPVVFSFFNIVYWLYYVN
T1 sequence (P22723 39-474): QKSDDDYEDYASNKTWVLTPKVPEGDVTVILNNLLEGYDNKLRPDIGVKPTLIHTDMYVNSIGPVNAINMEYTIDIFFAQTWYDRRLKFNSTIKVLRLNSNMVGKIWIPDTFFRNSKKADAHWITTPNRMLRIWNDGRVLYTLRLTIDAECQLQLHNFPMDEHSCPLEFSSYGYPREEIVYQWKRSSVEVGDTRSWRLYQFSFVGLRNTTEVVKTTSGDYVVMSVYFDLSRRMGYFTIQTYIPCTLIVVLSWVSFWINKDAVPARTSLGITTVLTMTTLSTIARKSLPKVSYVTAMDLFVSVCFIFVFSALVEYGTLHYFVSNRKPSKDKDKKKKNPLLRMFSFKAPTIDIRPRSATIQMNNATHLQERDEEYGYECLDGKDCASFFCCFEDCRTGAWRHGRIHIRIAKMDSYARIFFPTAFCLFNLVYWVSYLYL

## O=C(O)C[C@H](C(=O)O)[C@H](OC(=O)[C@@H]1C(C(=O)O[C@@H](C(=O)O)[C@@H](CC(=O)O)C(=O)O)=Cc2cc(O)c(O)cc2[C@H]1c1ccc(O)c(O)c1)C(=O)O [sevanol]
α1β2γ2 GABAA receptor
  EC50: 0.56 ± 0.04 µM
Rat ASIC1a (rASIC1a)
  IC50: 198 ± 19 µM
